This note sets out measurements from ChEMBL document CHEMBL1141495, “Isoindol-1,3-dione and isoindol-1-one derivatives with high binding affinity to beta-amyloid fibrils” (Bioorg Med Chem Lett, 2008).

pKi: −log10 of the molar value.

This assay in a line: Displacement of [125I]TZDM from beta amyloid 42 fibril.
`COc1ccc2c(c1)C(=O)N(c1ccc(N(C)C)cc1)C2=O` showed a pKi of 9.15.
For `CN(C)c1ccc(N2C(=O)c3ccccc3C2=O)cc1`, the pKi was 9.16.
As for `CN(C)c1ccc(N2C(=O)c3ccc(F)cc3C2=O)cc1`, the pKi was 9.25.
In turn, `COc1cc(N2C(=O)c3ccccc3C2=O)ccc1N(C)C` gave a pKi of 9.18.
With `COc1cc(N2C(=O)c3ccc(F)cc3C2=O)ccc1N(C)C`, the pKi is 9.11.
`COc1cc(N2C(=O)c3ccc(Br)cc3C2=O)ccc1N(C)C` had a pKi of 9.38.
Take `COc1ccc2c(c1)CN(c1ccc(N(C)C)cc1)C2=O`: the pKi was 9.03.
Compound `CN(C)c1ccc(N2Cc3cc(F)ccc3C2=O)cc1` had a pKi of 9.31. Against the preceding compound, the pKi is 0.28 log units higher.
In the case of `CN(C)c1ccc(N2Cc3cc(Cl)ccc3C2=O)cc1`, the pKi is 9.12. The pKi values of the last two compounds are within 0.2 log units of each other.
`Cc1ccc2c(c1)C(=O)N(c1ccc(N(C)C)cc1)C2` showed a pKi of 9.12.
`CN(C)c1ccc(N2Cc3ccc(Cl)cc3C2=O)cc1` showed a pKi of 9.30.
Regarding `COc1cc(N2Cc3ccccc3C2=O)ccc1N(C)C`, the pKi was 9.05.
The compound `COc1ccc(N2Cc3ccccc3C2=O)cc1N(C)C` showed a pKi of 9.19.
Next, `CN(C)c1ccc(N2C(=O)c3ccc(N(C)C)cc3C2=O)cc1`: 9.15.
Consider `CN(C)c1ccc(N2Cc3ccc(F)cc3C2=O)cc1`, for which the pKi is 9.03.
Next, `COc1cc(N2Cc3ccc(C)cc3C2=O)ccc1N(C)C`: 9.34; `COc1cc(N2C(=O)c3ccc(Cl)cc3C2=O)ccc1N(C)C`: 9.15.
Next, `CN(C)c1cccc(N2Cc3ccccc3C2=O)c1`: 9.24; `CN(C)c1cccc(N2C(=O)c3ccccc3C2=O)c1`: 9.34.
For `COc1ccc(N2C(=O)c3ccccc3C2=O)cc1N(C)C`, the pKi was 9.36. This pKi and that of the compound before are within 0.2 log units of each other.
The compound `CN(C)c1ccc(N2Cc3ccccc3C2=O)cc1` had a pKi of 9.24.
`CN(C)c1ccc(N2Cc3cc(Br)ccc3C2=O)cc1` gave a pKi of 9.09.
`Cc1ccc2c(c1)C(=O)N(c1ccc(N(C)C)cc1)C2=O` showed a pKi of 9.30.
In the case of `CC(C(=O)O)c1ccc(N2Cc3ccccc3C2=O)cc1` (stereo not given) [INDOPROFEN], the pKi was 9.28. This pKi and that of the compound before are within 0.2 log units of each other.
`CNc1ccc(-c2nc3ccc(O)cc3s2)cc1` [PITTSBURGH COMPOUND B UNLABELLED] gave a pKi of 9.15. This pKi and that of the compound before are within 0.2 log units of each other.
